Measured values from patent publication US20260356860A1, “2-SUBSTITUTED 3,4A,5,7,8,8A-HEXAHYDRO-4H-THIOPYRANO[4,3-DJPYRIMIDIN-4-ONES FOR WOUND TREATMENT” (priority 2022, published 2026).

Assays:
[1] = tested on: HEK293 SuperTOPFlash reporter cells, Wnt promoter; test: Wnt inhibition in HEK293 SuperTOPFlash reporter cells, DMSO vs aqueous GO-HA (FIGS. 1-3); format: cell-based
Experimental: In order to determine the effect of the compounds of Formula (I) on Wnt inhibition, an invitro assay using HEK293 SuperTOPFlash reporter cells, with the Wnt promoter driving a luciferase reporter gene, were utilized. 40,000 HEK293 SuperTOPFlash reporter cells were seeded, per well, in a 48 well plate for 24 hours, prior to administration of serial dilutions of the compounds of Formula (I) to individual wells. Serial dilutions ranging from […] to 1 nM of compounds of Formula (I) were added with or without 50 ng/mL Wnt3α (Time Biosciences) and allowed to incubate with the reporter cells for 18 hours. Reporter cells with no treatment were used as negative control.

[2] = tested on: E. coli 0157:H7 (derived from ATCC ® 12900 ™); test: Bacteriostasis, log reduction; format: cell-based; details: E. coli 0157:H7 ATCC 12900
Experimental: (§1) In order to assess the log reduction capabilities of compounds of Formula (1), testing was performed on organisms that are found in acute and chronic wounds. Triplicate tubes were prepared for each bacteria using 50 μL of inoculum (about 1×10^6 CFU/mL) which was added to 450 μL of compound solution (compound of Formula (I)) (or 100 μL of inoculum in 900 μL of compound solution), resulting in a final inoculum of about 1×10^5 CFU/mL, as shown in Table 4.
(§2) Tubes were mixed with a vortex and then incubated in a shaking incubator at 175 RPM and 35° C. to 37° C.
(§3) Positive control in Tables 5a and 5b was 1 mL of 0.89% saline with 1 mL of the 1×10^6 CFU/mL of the organism.
(§4) For Compounds 1, 7, 8, 10, and 18 in Tables 6, 7-A, 7-B, 8, 9, 10-A, 10-B, and 11: The compound solutions were prepared with compound (30 mg), polysorbate 20 (1.6 mL), butylene glycol (1.6 mL), phosphatidyl choline (0.66 g), ethanol (1.6 mL), hydroxypropyl cellulose (0.26 g), and ultra pure water (24.9 mL).
(§5) XAV939 Control in Table X1 was XAV939 (30 mg), polysorbate 20 (1.6 mL), butylene glycol (1.6 mL), phosphatidyl choline (0.66 g), ethanol (1.6 mL), ultra pure water (24.9 mL), and hydroxypropyl cellulose (0.26 g).
(§6) GO-HA Control in Table X2 was GO-HA (30 mg), polysorbate 20 (1.6 mL), butylene glycol (1.6 mL), phosphatidyl choline (0.66 g), ethanol (1.6 mL), ultra pure water (24.9 mL), and hydroxypropyl cellulose (0.26 g).
(§7) For Compound 18+GO-HA in Tables 6 and X4: compound 18 (45 mg), GO-HA (45 mg), polysorbate 20 (2 mL), butylene glycol (2 mL), phosphotidyl choline (0.5 g), ethanol (2 mL), hydroxypropyl cellulose (0.40 g), and ultra pure water (40 mL).
(§8) For XAV939+GO-HA in Tables 6 and X3-A, and X3-B: XAV939 (45 mg), GO-HA (45 mg), butylene glycol (2 mL), polysorbate 20 (2 mL), phosphotidyl choline (0.5 g), ethanol (2 mL), hydroxypropyl cellulose (0.40 g), and ultra pure water (40 mL).
(§9) Testing was performed at two time points: 18 to 24 hours, and […].

[3] = tested on: S. epidermidis (derived from ATCC ® 14990 ™); test: Bacteriostasis, log reduction; format: cell-based; details: S. epidermidis ATCC 14990
Experimental: as §1, §2, §3, §4, §5, §6, §7, §8, §9

[4] = tested on: S. aureus (MRSA) (derived from ATCC ® 33593 ™); test: Bacteriostasis, log reduction; format: cell-based; details: for Average result / Log Reduction / Log Value: S. aureus (MRSA) ATCC 33593
Experimental: as §1, §2, §3, §4, §5, §6, §7, §8, §9

[5] = tested on: A. baumannii (derived from ATCC ® 19606 ™); test: Bacteriostasis, log reduction; format: cell-based; details: A. baumannii ATCC 19606
Experimental: as §1, §2, §3, §4, §5, §6, §7, §8, §9

[6] = tested on: S. aureus (derived from ATCC ® 6538 ™); test: Bacteriostasis, log reduction; format: cell-based; details: S. aureus ATCC 6538
Experimental: as §1, §2, §3, §4, §5, §6, §7, §8, §9

[7] = tested on: S. pyogenes (derived from ATCC ® 19615 ™); test: Bacteriostasis, log reduction; format: cell-based; details: S. pyogenes ATCC 19615
Experimental: as §1, §2, §3, §4, §5, §6, §7, §8, §9

[8] = tested on: E. coli (derived from ATCC ® 8739 ™); test: Bacteriostasis, log reduction; format: cell-based; details: E. coli ATCC 8739
Experimental: as §1, §2, §3, §4, §5, §6, §7, §8, §9

new porcine skin = test: Energy peak of healed wound; format: in vivo; details: day 21; for Energy Peak / Energy Peak, Mean: topical
Experimental: Additional tests were performed including elasticity (Table 12); max force (Table 13); tensile strength (strain) (Table 14); energy peak (Table 15); rete-ridge formation; and collagen organization (plane polarized light) (FIG. 24) of the healed wound sites, described as follows.
A is saline (control), B is serum formulation (vehicle), C is GO-HA (vehicle), D is Compound 1; E is Compound 1+GO-HA; F is Compound 8; G is Compound 8+GO-HA; H is Compound 10; and J is Compound 10+GO-HA.
Energy Peak (N*mm) is the maximum force applied to a material over time. All compounds of Formula (I) tested with or without GO-HA ranged from 5% to 41% improvement in energy peak compared to the saline control. […] The vehicle, GO-HA, provided a 61% improvement in energy peak over the saline control.

O=c1[nH]c(-c2ccc(B(O)O)cc2)nc2c1CSCC2 [Compound 1, (4-(4-oxo-3,5,7,8-tetrahydro-4H-thiopyrano[4,3-d]pyrimidin-2-yl)phenyl)boronic acid]
IC50 [1]: 2000 nM
Average result ([2]; 24 h): 5.5 × 10^3
Log Reduction ([2]; 24 h): 0.5
Log Value ([2]; 24 h): 3.7
Average result ([2]; 72 h): <200
Log Reduction ([2]; 72 h): >1.9
Log Value ([2]; 72 h): <2.3
Average result ([3]; 24 h): 3.1 × 10^5
Log Reduction ([3]; 24 h): No
Log Value ([3]; 24 h): 5.5
Average result ([3]; 72 h): <200
Log Reduction ([3]; 72 h): >2.5
Log Value ([3]; 72 h): <2.3
effect on MRSA growth ([4]; 72 h, test 1): did not affect MRSA growth
Average result ([4]; 24 h): 9.3 × 10^3
Log Reduction ([4]; 24 h): 0.6
Log Value ([4]; 24 h): 4.0
Average result ([4]; 72 h): 4.0 × 10^4
Log Reduction ([4]; 72 h): No
Log Value ([4]; 72 h): 4.6
Average result ([5]; 24 h): <200
Log Reduction ([5]; 24 h): >3.0
Log Value ([5]; 24 h): <2.3
Average result ([5]; 72 h): <200
Log Reduction ([5]; 72 h): >3.0
Log Value ([5]; 72 h): <2.3
Average result ([6]; 24 h): 8.7 × 10^4
Log Reduction ([6]; 24 h): 0.4
Log Value ([6]; 24 h): 4.9
Average result ([6]; 72 h): <800
Log Reduction ([6]; 72 h): >2.4
Log Value ([6]; 72 h): <2.9
Average result ([7]; 24 h): <200
Log Reduction ([7]; 24 h): >3.2
Log Value ([7]; 24 h): <2.3
Average result ([7]; 72 h): <200
Log Reduction ([7]; 72 h): >3.2
Log Value ([7]; 72 h): <2.3
Average result ([8]; 24 h): 1.3 × 10^4
Log Reduction ([8]; 24 h): 1.2
Log Value ([8]; 24 h): 4.1
Average result ([8]; 72 h): <200
Log Reduction ([8]; 72 h): >3.0
Log Value ([8]; 72 h): <2.3
Energy Peak (new porcine skin; individual value 1): 3084.657 N*mm
Energy Peak (new porcine skin; individual value 2): 2356.435 N*mm
Energy Peak (new porcine skin; individual value 3): 1240.242 N*mm
Energy Peak (new porcine skin; individual value 4): 1885.046 N*mm
Energy Peak, Mean (new porcine skin): 2141.595 N*mm

CC(C)(OCCO)c1ccc(-c2nc3c(c(=O)[nH]2)CSCC3)cc1 [Compound 8, 2-(4-(2-(2-hydroxyethoxy)propan-2-yl)phenyl)-3,5,7,8-tetrahydro-4H-thiopyrano[4,3-d]pyrimidin-4-one]
IC50 [1]: 5 to 10 nM
Average result ([3]; 24 h): 6.0 × 10^2
Log Reduction ([3]; 24 h): 2.0
Log Value ([3]; 24 h): 2.8
Average result ([3]; 72 h): <200
Log Reduction ([3]; 72 h): >2.5
Log Value ([3]; 72 h): <2.3
Average result ([4]; 24 h): 3.3 × 10^6
Log Reduction ([4]; 24 h): No
Log Value ([4]; 24 h): 6.5
Average result ([4]; 72 h): 1.0 × 10^6
Log Reduction ([4]; 72 h): No
Log Value ([4]; 72 h): 6.0
Average result ([6]; 24 h): 5.4 × 10^4
Log Reduction ([6]; 24 h): 0.6
Log Value ([6]; 24 h): 4.7
Average result ([6]; 72 h): <7.4 × 10^3
Log Reduction ([6]; 72 h): >1.4
Log Value ([6]; 72 h): <3.9
Average result ([8]; 24 h): 3.1 × 10^3
Log Reduction ([8]; 24 h): 1.8
Log Value ([8]; 24 h): 3.5
Average result ([8]; 72 h): 6.8 × 10^4
Log Reduction ([8]; 72 h): 0.5
Log Value ([8]; 72 h): 4.8
improvement in energy peak compared to the saline control (new porcine skin): 29%
Energy Peak (new porcine skin; individual value 1): 2946.121 N*mm
Energy Peak (new porcine skin; individual value 2): 5124.987 N*mm
Energy Peak (new porcine skin; individual value 3): 2632.780 N*mm
Energy Peak (new porcine skin; individual value 4): 2286.458 N*mm
Energy Peak (new porcine skin; individual value 5): 1294.14 N*mm
Energy Peak, Mean (new porcine skin): 2856.897 N*mm
